Molecular target: T1, CcoI (Rhodobacter capsulatus, UniProt D5ARQ0)
T1 construct: full-length with C-terminal Myc-His tag (pBAD-ccoI-Myc/HisA), expressed in E. coli C43(DE3), purified in DDM, monomeric SEC peak; strain MT1131 is printed as wild type and as genomic template of the ccoI-senC fusion
T1 sequence (D5ARQ0 1-742): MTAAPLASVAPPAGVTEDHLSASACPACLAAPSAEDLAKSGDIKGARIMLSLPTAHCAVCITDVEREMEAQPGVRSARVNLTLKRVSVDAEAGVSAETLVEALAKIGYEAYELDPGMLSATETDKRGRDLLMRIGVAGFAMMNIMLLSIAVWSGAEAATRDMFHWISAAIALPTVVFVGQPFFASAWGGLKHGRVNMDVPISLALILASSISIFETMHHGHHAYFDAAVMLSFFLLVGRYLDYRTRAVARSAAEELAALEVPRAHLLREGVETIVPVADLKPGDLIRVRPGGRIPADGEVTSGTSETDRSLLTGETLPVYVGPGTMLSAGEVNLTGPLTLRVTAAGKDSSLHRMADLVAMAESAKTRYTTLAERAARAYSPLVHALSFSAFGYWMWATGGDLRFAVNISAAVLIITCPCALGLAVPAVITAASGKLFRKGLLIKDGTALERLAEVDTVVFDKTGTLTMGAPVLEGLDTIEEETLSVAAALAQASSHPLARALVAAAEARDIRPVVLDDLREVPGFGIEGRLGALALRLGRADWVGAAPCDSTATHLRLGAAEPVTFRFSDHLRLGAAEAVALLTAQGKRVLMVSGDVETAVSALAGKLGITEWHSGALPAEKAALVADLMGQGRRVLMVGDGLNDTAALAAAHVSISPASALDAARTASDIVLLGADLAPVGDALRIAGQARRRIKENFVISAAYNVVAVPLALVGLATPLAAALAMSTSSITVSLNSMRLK
Assay: […] phosphate release (charcoal, scintillation)
Assay type: biochemical
Settings: labelled compound; 10-100 µM ATP, 10 mM MgCl2, 50 mM Tris pH 7.5, 300 mM NaCl, 0.03% DDM, 35 °C; no added Cu

Compound: Nc1ncnc2c1ncn2[C@@H]1O[C@H](COP(=O)(O)OP(=O)(O)OP(=O)(O)O)[C@@H](O)[C@H]1O [ATP]
- 33P phosphate release (charcoal, scintillation): ATPase activity of detergent-solubilized, purified CcoI
